# Measurements from US12115209B2, “ROMO1-derived antimicrobial peptides including lysine substitution and variants thereof” (KOREA UNIVERSITY RESEARCH AND BUSINESS FOUNDATION, priority 2019, dated 2024).
# No end group written: not given here.
# B1: MPVAVGPYGQSQPSCFDRVKMGFVMGCAVGMAAGALFGTFSCLRIGMRGRELMGGIGKTMMQSGGTFGTFMAIGMGIRC (protein)
# chain: MPVAVGPYGQSQPSCFDRVKMGFVMGCAVGMAAGALFGTFSCLRIGMRGRELMGGIGKTMMQSGGTFGTFMAIGMGIRC
# modifications: Homo sapiens Romo1
# Columns and labels:
# Test in all cases: Minimum bactericidal concentration (MBC) assay
# Assay type in all cases: cell-based
# [1] = test system: Pseudomonas aeruginosa (ATCC 27853); settings: for MBC Pseudomonas aeruginosa: Tables 11-21, no unit printed
# Procedure: (§1) First, each of Pseudomonas aeruginosa (ATCC 27853) and Staphylococcus aureus (ATCC 29213) was cultured in 3% (w/v) TSB (tryptic soy broth) liquid medium at 37° C. and 200 rpm for 4 hours, and then further cultured under the same conditions for 3 hours to a concentration of 5×10^6 CFU/ml. Strain solutions were prepared by diluting each of the further cultured strains with SP (sodium phosphate; 10 mM sodium phosphate, 1% TSB) buffer to a final concentration of 2×10^5 CFU/ml.
# (§2) Then, each peptide at varying concentrations (0 μg/ml to 300 μg/ml) was dispensed into each well of a 96-well microplate, and 100 μl (1×10^5 CFU/ml) of each of the prepared strain solutions was added thereto, mixed therewith, and allowed to react with the peptide in an incubator at 37° C. for 1 hour.
# (§3) In addition, 30 g/L of TS (tryptic soy) and 15 g/L of agar were dissolved in distilled water and sterilized, and then 25 ml of the solution was poured onto a 100 mm round plate and solidified at room temperature for one day or more, thereby preparing a TS agar plate. 10 μl of each reaction solution of the peptide and the strain was plated on the TS agar plate at a constant size, and incubated in an incubator at 37° C. for 18 hours, and then colony formation on the plate was checked. The minimum bactericidal concentration was defined as the minimum concentration of the peptide at which no colony was formed, and the experimental results are shown in Table 1 below.
# CRPA = settings: Tables 11-21, no unit printed
# [2] = test system: Staphylococcus aureus (ATCC 29213); settings: for MBC Staphylococcus aureus: Tables 11-21, no unit printed
# Procedure: as §1, §2, §3
# [3] = test system: Methicillin-resistant Staphylococcus aureus (MRSA, ATCC 33591); settings: Tables 11-21, no unit printed
# Procedure: as §1, with “2×10^5 CFU/ml. […]” for “2×10^5 CFU/ml.”
# as §3, with “checked.” for “checked. The minimum bactericidal concentration was defined as the minimum concentration of the peptide at which no colony was formed, and the experimental results are shown in Table 1 below.”
# Specifically, each type of bacteria was cultured in 3% (w/v) TSB (tryptic soy broth) liquid medium at 37° C. and 200 rpm for 4 hours, and then further cultured under the same conditions for 3 hours to a concentration of 5×10^6 CFU/ml. Strain solutions were prepared by diluting each of the further cultured strains with SP buffer to a final concentration of 2×10^5 CFU/ml.
# as §2, with “Then, the KU-5878” for “Then, each”
# In addition, 10 μl of each reaction solution of the peptide and the strain was plated on the TS agar plate at a constant size, and incubated in an incubator at 37° C. for 18 hours, and then colony formation on the plate was checked.
Molecule,MBC Pseudomonas aeruginosa [1],MBC CRPA (CRPA),MBC Staphylococcus aureus [2],MBC MRSA [3],"MBC value (μg/ml) against Pseudomonas aeruginosa ([1]; ATCC 27853, reaction 37° C. 1 hour, no bovine serum)","MBC value (μg/ml) against Staphylococcus aureus ([2]; ATCC 29213, reaction 37° C. 1 hour, no bovine serum)"
-KMMKKGGKFGTFMAIG-GIR [Peptide K4-d58K-d75M],150 µg/mL,160 µg/mL,150 µg/mL,180 µg/mL,–,–
-TMMQSGGTFGTFMAIGMGIR [Peptide 5878-d58K],300 µg/mL,300 µg/mL,300 µg/mL,> 300 µg/mL,–,–
ATMMQSGGTFGTFMAIGMGIR [KU-5878-K58A],> 300 µg/mL,> 300 µg/mL,> 300 µg/mL,> 300 µg/mL,–,–
K-MMQSGGTFGTFMAIGMGIR [Peptide 5878-d59T],150 µg/mL,150 µg/mL,150 µg/mL,150 µg/mL,–,–
KAMMQSGGTFGTFMAIGMGIR [KU-5878-T59A],150 µg/mL,130 µg/mL,120 µg/mL,140 µg/mL,–,–
KK-MKKGGKFGTFMAIG-GIR [Peptide K4-d60M-d75M],200 µg/mL,200 µg/mL,200 µg/mL,210 µg/mL,–,–
KKMMKKGGKFGT-MAIGMGIR [5878 K4-d70F],100 µg/mL,160 µg/mL,140 µg/mL,110 µg/mL,–,–
KKMMKKGGKFGTFM-IG-GIR [Peptide K4-d72A-d75M],200 µg/mL,200 µg/mL,200 µg/mL,200 µg/mL,–,–
KKMMKKGGKFGTFMA-GMGIR [Peptide 5878-K4-d73I],300 µg/mL,> 300 µg/mL,300 µg/mL,> 300 µg/mL,–,–
KRMMQSGGTFGTFMAIGMGIR [KU-5878-T59R],30 µg/mL,30 µg/mL,25 µg/mL,30 µg/mL,–,–
KSMMQSGGTFGTFMAIGMGIR [KU-5878-T59S],> 300 µg/mL,> 300 µg/mL,> 300 µg/mL,> 300 µg/mL,–,–
"KT-MQS-GTFGTF--IG-GIR [5878-d60M, d64G, d71M, d72A, d75M]",200 µg/mL,200 µg/mL,200 µg/mL,200 µg/mL,–,–
"KT-MQS-GTFGTFM-IG-GIR [5878-d60M, d64G, d72A, d75M]",120 µg/mL,120 µg/mL,100 µg/mL,120 µg/mL,–,–
"KT-MQS-GTFGTFMAIGMGIR [5878-d60M, d64G]",100 µg/mL,100 µg/mL,100 µg/mL,110 µg/mL,–,–
"KT-MQSGGTFGTFM-IG-GIR [5878-d60M, d72A, d75M]",300 µg/mL,300 µg/mL,280 µg/mL,300 µg/mL,–,–
KTAMQSGGTFGTFMAIGMGIR [KU-5878-M60A],> 300 µg/mL,> 300 µg/mL,> 300 µg/mL,> 300 µg/mL,–,–
KTMMASGGTFGTFMAIGMGIR [KU-5878-Q62A],> 300 µg/mL,> 300 µg/mL,> 300 µg/mL,> 300 µg/mL,–,–
KTMMKSGGTFGTFMAIGMGIR [KU-5878-Q62K],90 µg/mL,90 µg/mL,80 µg/mL,90 µg/mL,–,–
KTMMQ-GGTFGTFMAIGMGIR [Peptide 5878-d63S],200 µg/mL,200 µg/mL,200 µg/mL,200 µg/mL,–,–
KTMMQAGGTFGTFMAIGMGIR [KU-5878-S63A],300 µg/mL,300 µg/mL,300 µg/mL,> 300 µg/mL,–,–
KTMMQKGGTFGTFMAIGMGIR [KU-5878-S63K],60 µg/mL,50 µg/mL,50 µg/mL,50 µg/mL,–,–

Molecule,MBC Pseudomonas aeruginosa [1],MBC CRPA (CRPA),MBC Staphylococcus aureus [2],MBC MRSA [3],"MBC value (μg/ml) against Pseudomonas aeruginosa ([1]; ATCC 27853, reaction 37° C. 1 hour, no bovine serum)","MBC value (μg/ml) against Staphylococcus aureus ([2]; ATCC 29213, reaction 37° C. 1 hour, no bovine serum)"
KTMMQRGGTFGTFMAIGMGIR [KU-5878-S63R],20 µg/mL,20 µg/mL,15 µg/mL,25 µg/mL,–,–
"KTMMQS-GTFGTF-AIGM-IR [5878-d64G, d71M, d76G]",200 µg/mL,200 µg/mL,200 µg/mL,200 µg/mL,–,–
KTMMQSGGAFGTFMAIGMGIR [KU-5878-T66A],> 300 µg/mL,> 300 µg/mL,> 300 µg/mL,> 300 µg/mL,–,–
KTMMQSGGKFGTFMAIGMGIR [KU-5878-T66K],80 µg/mL,70 µg/mL,60 µg/mL,80 µg/mL,–,–
KTMMQSGGRFGTFMAIGMGIR [KU-5878-T66R],80 µg/mL,80 µg/mL,90 µg/mL,90 µg/mL,–,–
KTMMQSGGSFGTFMAIGMGIR [KU-5878-T66S],> 300 µg/mL,> 300 µg/mL,> 300 µg/mL,> 300 µg/mL,–,–
KTMMQSGGT-GTFMAIGMGIR [Peptide 5878-d67F],200 µg/mL,200 µg/mL,200 µg/mL,200 µg/mL,–,–
KTMMQSGGTAGTFMAIGMGIR [KU-5878-F67A],> 300 µg/mL,> 300 µg/mL,> 300 µg/mL,> 300 µg/mL,–,–
KTMMQSGGTFG-FMAIGMGIR [Peptide 5878-d69T],120 µg/mL,140 µg/mL,120 µg/mL,140 µg/mL,–,–
KTMMQSGGTFGAFMAIGMGIR [KU-5878-T69A],300 µg/mL,300 µg/mL,300 µg/mL,300 µg/mL,–,–
KTMMQSGGTFGKFMAIGMGIR [KU-5878-T69K],140 µg/mL,150 µg/mL,130 µg/mL,150 µg/mL,–,–
KTMMQSGGTFGT-MAIGMGIR [Peptide 5878-d70F],200 µg/mL,200 µg/mL,200 µg/mL,200 µg/mL,–,–
"KTMMQSGGTFGTF-AIG-GIR [5878-d71M, d75M]",300 µg/mL,300 µg/mL,250 µg/mL,300 µg/mL,–,–
KTMMQSGGTFGTF-AIGMGIR [Peptide 5878-d71M],250 µg/mL,300 µg/mL,250 µg/mL,300 µg/mL,–,–
KTMMQSGGTFGTFM-IGMGIR [Peptide 5878-d72A],150 µg/mL,170 µg/mL,150 µg/mL,160 µg/mL,–,–
KTMMQSGGTFGTFMA-GMGIR [Peptide 5878-4731],> 300 µg/mL,> 300 µg/mL,> 300 µg/mL,> 300 µg/mL,–,–
KTMMQSGGTFGTFMAAGMGIR [KU-5878-I73A],> 300 µg/mL,> 300 µg/mL,> 300 µg/mL,> 300 µg/mL,–,–
KTMMQSGGTFGTFMAIGMAIR [KU-5878-G76A],> 300 µg/mL,> 300 µg/mL,> 300 µg/mL,> 300 µg/mL,–,–
KTMMQSGGTFGTFMAIGMG-R [Peptide 5878-d77I],> 300 µg/mL,> 300 µg/mL,> 300 µg/mL,> 300 µg/mL,–,–
B1,–,–,–,–,Insoluble,Insoluble
